Holding throughout (assay type): cell-based
One experiment deals with METTL3 in Mia cell. Kind of experiment: METTL3 RNA and protein level changes with JQ1 treatment in JQ1-sensitive cells. The following applies: dose-dependent. The source says: (§1) FIGS. 16A-16B: (A) The protein level changes of METTL3 with JQ1 treatment in the JQ1-insensitive cells compared to DMSO control (left); the RNA level changes of METTL3 the JQ1-insensitive cells with JQ1 treatment compared to DMSO control (mid); the polyA RNA m6A level changes in JQ1-insensitive cells among the knockdown control and DMSO control samples, the knockdown control and JQ1 treatment samples, the METTL3 knockdown and DMSO control, and the METTL3 knockdown and JQ1 treatment samples (right). (B) The protein level changes of METTL3 with JQ1 treatment in the JQ1-sensitive cells compared to DMSO control (left); the RNA level changes of METTL3 the JQ1-sensitive cells with JQ1 treatment compared to DMSO control (mid); the polyA RNA m6A level changes in JQ1-sensitive cells among the knockdown control and DMSO control samples, the knockdown control and JQ1 treatment samples, the METTL3 knockdown and DMSO control, and the METTL3 knockdown and JQ1 treatment samples (right).

Experiment [1] deals with polyA RNA m^6A in JQ1-insensitive cells (8902 cell line). Briefly: polyA RNA m^6A level upon JQ1 treatment in JQ1-insensitive PDAC cells. The source says: (§2) FIGS. 15A-15D: The results of the inhibition rates of JQ1 in different PDAC cell lines. (B) The correlation analysis of gene expression of BRD family genes and METTL3 in PDAC from TGCA and GTEx database. (C) The polyA RNA m6A level changes upon JQ1 treatment compared to the DMSO control in different PDAC cell lines. (D) The cell viability changes with JQ1 treatment with a series concentrations in the JQ1-insensitive cells upon the knockdown of METTL3 and the JQ1-sensitive cells upon the overexpression of METTL3 compared to control. […]
(§3) LC-MS/MS quantification of m^6A in poly(A) RNA. mRNA was extracted from the total RNA using 2 rounds of the Dynabeads mRNA purification kit. […] The nucleosides were quantified by using the nucleoside-to-base ion mass transitions of 282 to 150 (m^6A) and 268 to 136 (A). Quantification was carried out by comparison with a standard curve obtained from pure nucleoside. The ratio of m^6A to A was calculated based on the calibrated concentrations (Liu et al., 2018).

The next experiment has as its system METTL3 in 8902 cell line. Briefly: METTL3 RNA and protein level changes with JQ1 treatment in JQ1-insensitive cells. As to conditions: 8902 cell line (JQ1-insensitive).
Excerpt: as §1

The next experiment relates to JQ1-sensitive PDAC cells. Kind of experiment: Cell viability with JQ1 in JQ1-sensitive cells upon overexpression of METTL3. The following applies: series of JQ1 concentrations. The source says:
(§4) FIGS. 15A-15D: The results of the inhibition rates of JQ1 in different PDAC cell lines. (B) The correlation analysis of gene expression of BRD family genes and METTL3 in PDAC from TGCA and GTEx database. (C) The polyA RNA m6A level changes upon JQ1 treatment compared to the DMSO control in different PDAC cell lines. (D) The cell viability changes with JQ1 treatment with a series concentrations in the JQ1-insensitive cells upon the knockdown of METTL3 and the JQ1-sensitive cells upon the overexpression of METTL3 compared to control.

For experiment [2], the system named is polyA RNA m^6A in JQ1-sensitive cells (Mia cell). Kind of experiment: polyA RNA m^6A level upon JQ1 treatment in JQ1-sensitive PDAC cells.
Excerpt: as §2, §3

For experiment [3], the system named is JQ1-insensitive PDAC cells. Briefly: Cell viability with JQ1 in JQ1-insensitive cells upon knockdown of METTL3. As to conditions: series of JQ1 concentrations.
Excerpt: as §4

A further experiment concerns PDAC cell lines. Kind of experiment: Inhibition rates of JQ1 in a panel of 9 PDAC cell lines.
Excerpt: as §4

For `Cc1sc2c(c1C)C(c1ccc(Cl)cc1)=N[C@@H](CC(=O)OC(C)(C)C)c1nnc(C)n1-2` [JQ1], in the experiment with METTL3 in Mia cell, the “METTL3 RNA level” value is “dramatic decreases” and the METTL3 protein level entry is given as “dramatic decreases”. The “polyA RNA m^6A, JQ1 treatment after METTL3 knockdown” value in experiment [1] (8902 cell line (JQ1-insensitive)) is recorded as “further reduced”. The “polyA RNA m^6A changes” value in experiment [1] (JQ1-insensitive PDAC cells, versus DMSO control) is “moderate to negligible”. Also, in the experiment with METTL3 in 8902 cell line, the “METTL3 RNA level” value is given as “moderate effect” and the METTL3 protein level entry is listed as “less of an effect”. Further, in the experiment on JQ1-sensitive PDAC cells, the “effect of JQ1 treatment upon overexpression of METTL3 in JQ1-sensitive cell” value is given as “inhibits”. In addition, the “polyA RNA m^6A” value in experiment [2] (JQ1-sensitive PDAC cells, versus DMSO control) was “dramatically decreased”. Moreover, in experiment [2] (Mia cell (JQ1-sensitive), dose-dependent), the “polyA RNA m^6A level” value was “dramatic decreases”. Further, the “viability of JQ1-insensitive cells, knockdown of METTL3 together with JQ1 treatment” value in experiment [3] was “synergistically reduce”. The “inhibition effect (anticancer activity)” value in the experiment with PDAC cell lines was “varies among different cell types”.

(Values after patent publication US20230123585A1, “COMPOSITIONS AND METHODS FOR TREATING OR PREVENTING CANCER USING DEUBIQUITINASE INHIBITORS” (The University of Chicago, priority 2020, published 2023).)
